Laboratory results as given in patent publication US20250295606A1, “BIOSOLUBLE POLYMER OR PARTICLE FOR DELIVERY OF AN ACTIVE AGENT AND A METHOD FOR THE PRODUCTION” (Tijani Holding B.V., priority 2021, published 2025).

Columns and labels:
pig = tested on: pig
Source text: For sublingual (s.l.) treatment it is necessary to anesthetize the animals as to allow the application of the insulin complexes onto the sublingual mucosa, but long-term anesthesia is undesirable as it may affect insulin/glucose metabolism.

[1] = tested on: diabetic Göttingen minipigs; test: Sublingual SLIM particles vs s.c. insulin, blood glucose in diabetic Göttingen minipigs; assay type: in vivo; conditions: Minipig 2, different days; SLIM-AF5 15 IU sublingual, RHI 10 IU subcutaneous; 2H30, after first 10 min
Source text: Testing the sublingual application of SLIM particles loaded with insulin in normoglycemic and STZ diabetic […] in a chronic in vivo study.
The purpose of this chronic, large animal in vivo study was to test the effective penetration of insulin containing particles through the sublingual mucosa, compare the effect with the subcutaneously applied human recombinant, measure the blood glucose changes and analyses the plasma insulin levels. Domestic pigs were also included in the study to compare the glucose lowering effect of insulin-loaded particles in the Göttingen minipigs and domestic pigs. […]
In this study, we first recorded the effect of s.c. application of human recombinant insulin as reference compounds and s.c. and s.l. applications of micro-compounds. […] The glucose levels of the pigs were followed and monitored for at least 3 days. […]
Corresponding to Example 20, the efficacy of SLIM particles was compared to subcutaneous injection of commercial recombinant human insulin in the same diabetic Göttingen minipig (Minipig 2) on different days. First day the animal received SLIM-AF5 (AF, 15 IU) particles sublingually and the second day was administered Recombinant Human Insulin (RHI, 10 IU) subcutaneously and the BG levels were monitored for 2H30 and compared (FIG. 22).

[2] = Plasma insulin level in diabetic Göttingen minipigs; assay type: in vivo; conditions: diabetic Göttingen minipig, subcutaneous injection
Source text: The purpose of this chronic, large animal in vivo study was to test the effective penetration of insulin containing particles through the sublingual mucosa, compare the effect with the subcutaneously applied human recombinant, measure the blood glucose changes and analyses the plasma insulin levels. Domestic pigs were also included in the study to compare the glucose lowering effect of insulin-loaded particles in the Göttingen minipigs and domestic pigs. The test compounds were applied s.l. and s.c. to the pigs being under the anesthetic propofol (Amnesia).
On the first day of acclimatization a central venous catheter was installed (Certofix®Mono B-Braun V430) for each domestic pig and Göttingen minipig. The pigs were fasted overnight before the day of operation, but supplied with water ad libitum. The animals were pre-anesthetized intramuscularly with Calypsol/Xilazine (2/1.8 mL, based on body weight) injections in the stalls to avoid stress, and were transported to the operating room. The anesthesia was maintained using isoflurane inhalation narcosis (2-2.5%) with oxygen. […]. The venous catheters were introduced by aseptic technique into the left external jugular vein. The end of the catheter was pulled subcutaneously to the back part of the head between the ears, and fixed by sutures, in two layers. […]

**Q.** What does the source list for CC(C)c1cccc(C(C)C)c1O [Propofol]?
**A.** time until the jaw was relaxed (pig; 5 mg/kg, 20 mg/mL i.v.): 60 s; time until the pig was laying down (pig; 5 mg/kg, 20 mg/mL i.v.): 30 s; blood glucose measurements under anesthesia (pig; 20 minutes before, then 5, 10, 15 and 30 minutes after anesthesia): in the normal range

**Q.** Which results are given for “recombinant human insulin: commercial recombinant human insulin, subcutaneous reference”?
**A.** BG level course [1]: continue to decline linearly with the time but with a slightly different speed and slop; maxima of plasma insulin ([2]; 2 IU): only one insulin maximum in plasma; maxima of plasma insulin ([2]; 10 IU): only one maximum peak of plasma insulin
